From patent US20140322250A1, “Peptides for the Treatment of Multiple Sclerosis and Related Diseases” (priority 2013, published 2014)
Where no end group is shown, it is not given here. [ ]: non-standard residue; d: D form.

Legend:
[1] = Pharmacokinetic study, plasma concentration by LC-MS/MS; format: in vivo, male Sprague Dawley rat
Experimental: A pharmacokinetic study of all-D-TTNYT (SEQ ID NO:2) (RAP-103) following intravenous and oral administration was conducted at a target dose level of 1 mg/kg in the male Sprague Dawley rat. The concentration of RAP-103 in each plasma and brain sample was measured using a suitable LC-MS/MS assay. The assay used was a research grade assay (RGA-1) which was established by assessing the accuracy, precision and the linearity of the method. Plasma concentrations generated were used to evaluate the pharmacokinetic parameters of all-D-TTNYT (SEQ ID NO:2) (RAP-103).
The dose formulation was administered intravenously to some animals as a slow bolus over ca 30 s via the tail vein and to a different group of animals orally via gastric gavage at a target dose volume of 1 mL/kg, to achieve a target dose level of 1 mg/kg. The dose volume administered was calculated according to the bodyweight of the animal on the day of dosing. The weight of administered dose was recorded. […] Results expressed as ng/mL

[2] = 6.0 mg daily intranasal
Experimental: Their neurological examination confirmed increased deep tendon reflexes, spasticity of the lower limbs and pyramidal weakness of the legs. Therapy, consisting of 6.0 mg of Peptide T daily, was self-administered via 4 metered intranasal sprays, delivered three times daily.

[3] = biological target: CCR2 (Homo sapiens, UniProt P41597); format: cell-based; settings: for inhibition of CCR2 (MCP-1) elicited chemotaxis: FIG. 4, 20 pM peptide 30 minutes prior, MCP-1 0.6 nM for 2 hours; for blocking CCL2 (MCP-1) chemotaxis: FIG. 3, tested at 10^−14 M
Chain of CCR2 (P41597 whole entry): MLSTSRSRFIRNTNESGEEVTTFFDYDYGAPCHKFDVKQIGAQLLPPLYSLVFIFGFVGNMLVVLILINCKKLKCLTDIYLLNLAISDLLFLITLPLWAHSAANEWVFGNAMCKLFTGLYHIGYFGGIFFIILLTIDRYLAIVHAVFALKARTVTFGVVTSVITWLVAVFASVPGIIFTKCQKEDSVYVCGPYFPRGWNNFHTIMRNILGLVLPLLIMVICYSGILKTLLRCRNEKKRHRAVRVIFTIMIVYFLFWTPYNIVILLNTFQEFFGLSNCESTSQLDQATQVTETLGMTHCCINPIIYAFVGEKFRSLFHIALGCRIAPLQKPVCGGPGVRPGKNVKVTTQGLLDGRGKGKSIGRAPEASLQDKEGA
Excerpt: Triplicate determinations were made and results are expressed as the mean plus or minus SEM. The experiment shown is a direct comparison among all RAPs. Statistical analysis was by unpaired t-test, with significance set at the p<0.01 (*) level for difference from CCL2 only chemotaxis.
Data are the average of 2 separate experiments, conducted with triplicate determinations. Data (chemotactic index) are presented as mean±SEM. The IC50 for inhibition of MCP-1 or MIP-1β was generated by a nonlinear inhibition curve fit in GraphPad Prism software, version 5.0. […] Data are presented as mean±SEM. *P<0.05, **P<0.01 vs RAP-103 untreated.
Triplicate determinations were performed and results are expressed as the mean plus or minus SEM. The experiment shown is a direct comparison among all RAPs. Statistical analysis was by unpaired t-test, with significance set at the p<0.01 (*) level for difference from CCL2 only chemotaxis.
A representative experiment is shown comprising triplicate determinations and is presented as relative fluorescence units, Mean±SEM.

[4] = system: β-Integrin-mediated adhesion to human fibronectin; experiment: MCP-1 elicited adhesion of human monocytes to human fibronectin; format: cell-based; settings: FIG. 5, 10 minutes pretreatment
Experimental: Human monocytes were treated with the indicated doses of all-D-(IDNYT) for 10 minutes prior to adherence to the β-integrin human fibronectin. Data is the average of two separate experiments, conducted with triplicate determinations. Data are presented as Mean±SEM of the normalized adherence response from two experiments. The IC50 for inhibition of MCP-1 stimulated adherence was generated using a nonlinear inhibition curve fit in GraphPad Prism Version 5.0.

[5] = system: response to bradykinin; settings: amounts up to 50,000 times the standard challenge of bradykinin; Stewart and Woolley 1965; cited from earlier work
[6] = biological target: TLR4 on human monocyte-derived immature dendritic cells (human, UniProt O00206 24-839); experiment: cell-based or functional assay
Chain of TLR4 on human monocyte-derived immature dendritic cells (O00206 24-839): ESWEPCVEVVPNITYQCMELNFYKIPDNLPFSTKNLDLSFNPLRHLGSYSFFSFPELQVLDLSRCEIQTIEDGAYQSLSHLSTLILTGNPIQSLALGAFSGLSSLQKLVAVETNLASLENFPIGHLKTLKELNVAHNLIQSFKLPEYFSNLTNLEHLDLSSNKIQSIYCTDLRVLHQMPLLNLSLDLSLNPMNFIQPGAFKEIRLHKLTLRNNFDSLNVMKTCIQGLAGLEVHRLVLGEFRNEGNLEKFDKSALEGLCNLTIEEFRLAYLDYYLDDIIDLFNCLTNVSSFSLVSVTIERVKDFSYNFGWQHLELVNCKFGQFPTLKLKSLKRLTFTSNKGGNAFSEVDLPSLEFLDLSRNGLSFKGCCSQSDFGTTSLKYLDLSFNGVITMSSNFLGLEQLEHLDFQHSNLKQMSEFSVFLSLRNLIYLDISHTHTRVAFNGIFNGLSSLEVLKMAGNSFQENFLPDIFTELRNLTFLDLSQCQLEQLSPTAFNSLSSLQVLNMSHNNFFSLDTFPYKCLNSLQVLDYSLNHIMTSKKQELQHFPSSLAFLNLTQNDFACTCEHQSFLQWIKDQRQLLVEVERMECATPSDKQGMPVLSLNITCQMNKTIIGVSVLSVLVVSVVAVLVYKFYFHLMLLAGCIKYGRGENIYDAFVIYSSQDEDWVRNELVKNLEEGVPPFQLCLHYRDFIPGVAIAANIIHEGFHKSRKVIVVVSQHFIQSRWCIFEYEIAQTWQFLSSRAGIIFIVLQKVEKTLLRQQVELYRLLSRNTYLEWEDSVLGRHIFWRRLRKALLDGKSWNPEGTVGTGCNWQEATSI

C[C@H](O)[C@@H](N)C(=O)N[C@@H](C(=O)N[C@H](CC(N)=O)C(=O)N[C@H](Cc1ccc(O)cc1)C(=O)N[C@@H](C(=O)O)[C@H](C)O)[C@H](C)O [RAP-103, all-D-TTNYT]
time of peak levels in plasma ([1]; 1 mg/kg, rat): 10 to 15 min
concentration in plasma ([1]; intravenous 1 mg/kg, 0.5 h, individual animals): 561 ng/mL
tolerability of dose administrations ([1]; intravenous and oral gavage, 1 mg/kg, rat): well tolerated
level at 0.083 h ([1]; male, Sprague Dawley, rat, plasma, iv, 1 mg/kg, intravenous 1 mg/kg, 0.083 h, individual animals): 3050 ng/mL
level at 0.167 h ([1]; male, Sprague Dawley, rat, plasma, iv, 1 mg/kg, intravenous 1 mg/kg, 0.167 h, individual animals): 2400 ng/mL
level at 0.25 h ([1]; male, Sprague Dawley, rat, plasma, iv, 1 mg/kg, intravenous 1 mg/kg, 0.25 h, individual animals): 2050 ng/mL
level at 0.5 h ([1]; male, Sprague Dawley, rat, plasma, iv, 1 mg/kg, intravenous 1 mg/kg, 0.5 h, individual animals): 558 ng/mL
level at 1 h ([1]; male, Sprague Dawley, rat, plasma, iv, 1 mg/kg, intravenous 1 mg/kg, 1 h, individual animals): 405 ng/mL

ASTTTNYY [Peptide T]
patient-reported change ([2]; after 2 weeks, continued to end of week 10): definite improvements
time to walk 10 meters ([2]; end of week 10, 65 seconds initially, one patient): 15 s

Asn-Thr-Arg-Tyr-Arg [NYRYR]
inhibition of CCR2 (MCP-1) elicited chemotaxis [3]: potently block

Asn-Thr-Ser-Tyr-Arg ([dN][dT][dS][dY][dR]) [NTSYR]
blocking CCL2 (MCP-1) chemotaxis [3]: retain potency

Asn-Thr-Ser-Tyr-Gly ([dN][dT][dS][dY]G) [NTSYG]
inhibition of CCR2 (MCP-1) elicited chemotaxis [3]: potently block

Glu-Thr-Trp-Tyr-Ser ([dE][dT][dW][dY][dS]) [ETWYS]
inhibition of CCR2 (MCP-1) elicited chemotaxis [3]: potently block

Ile-Asn-Asn-Tyr-Thr ([dI][dN][dN][dY][dT]) [IDNYT (SEQ ID NO:8)]
inhibition of CCR2 (MCP-1) elicited chemotaxis [3]: potently block

Ile-Asp-Asn-Tyr Thr ([dI][dD][dN][dY][dT]) [IDNYT (SEQ ID NO:6)]
blocking of MCP-1 elicited adhesion [4]: potently blocking
inhibition of CCR2 (MCP-1) elicited chemotaxis [3]: potently block

Ser-Ser-Thr-Tyr-Arg ([dS][dS][dT][dY][dR]) [SSTYR]
blocking CCL2 (MCP-1) chemotaxis [3]: retain potency

Thr-Thr-Ser-Tyr-Thr ([dT][dT][dS][dY][dT]) [TTSYT]
blocking CCL2 (MCP-1) chemotaxis [3]: retain potency

all-D-bradykinin
inhibition of the response to bradykinin or bradykinin-like effect [5]: neither any inhibition of the response to bradykinin, or any bradykinin-like effect

[dT][dT][dN][dY][dT] [all-D-TTNYT (RAP-103)]
IC50 for inhibition of LPS (100 ng/mL) induced TNFα production in human monocyte-derived iDC (FIG. 6) [6]: ~0.1 pM
